Here are results for one compound from patent US20050004044A1, “Use of orsaponin [3beta, 16beta, 17 alpha-trihydroxycholost-5-en-22-one 16-0-(2-0-4-methoxybenzoyl-beta-D-xylopyranosyl)-(1->3)-(2-0-acetyl-alpha-L-arabinopyranoside)] or OSW-1 and its derivatives for cancer therapeutics” (priority 2003, published 2005).

The subject of test [1] is pancreatic cancer (Panco-2) cells. Kind of test: MTT cell growth inhibition, Panco-2. The class given is cell-based. To be noted: Mus musculus, Panco-2, 72 h. The procedure: (§1) 1. MTT Assays. For these assays either cancer cell lines were used. Alternatively, mononuclear cells from peripheral blood samples of CLL patients or normal donors were separated by Ficoll Hipaque fractionation and resuspended in DMEM complete medium. Malignant cells from various human cell lines (usually at 5×10^4 cells/ml) or mononuclear cells from peripheral blood of leukemia patients and healthy donors (1×10^6 cells/ml) were incubated in either αMEM or RPMI 1640 with or without various concentrations of OSW-1 in the range of 0-10 nM. Each experimental condition was done in triplicate. After the indicated number of days (usually 3 days or 72 hours) of exposure to OSW-1, cell survival was assessed by the addition of the MTT dye to the wells. The MTT dye changes its color depending on the presence of live cells in the well. Survival of cells under orsaponin treatment was evaluated as a percentage of control cell growth. Alternatively, one can also use the dye trypan-blue which penetrates dead cells thereby allowing one to count live cells under the microscope and estimating percentage survival.
The effect of Orsaponin and 17-deoxyorsaponin in pancreatic cancer cells was also assessed. […] Cell growth inhibition was measured by MTT assay.

The test system of test [2] is HCT116 p53+/+ colon cancer cells. Put plainly: Colony formation assay, HCT116 p53+/+. The class given is cell-based, human. As for the experimental part: (§2) FIG. 6. Effect of OSW-1 on cell survival in human colon carcinoma cells. Human colon cancer cells with wild-type p53 (HCT116 p53+/+) and p53-null (HCT116 p53−/−) were treated with the indicated concentrations of OSW-1, and cell survival was measured by colony formation assay.
(§3) OSW-1 Inhibits Growth of Human Colon Cancer Cells. […] The HCT116 colon cancer cells with wild-type p53 (p53+/+) and p53-null (p53−/−) were treated with the various concentrations of orsaponin (OSW-1), and cell survival was measured by colony formation assay.

Test [3] has as its system human promyelocytic leukemia HL-60 cells. To be noted: Mimaki et al., 1997; read-out: IC50, cytostatic activity against HL-60; cited from earlier work.
Test [4] concerns HCT116 p53−/− colon cancer cells. Kind of test: Colony formation assay, HCT116 p53−/−. Format: cell-based, human. The procedure: as §2, §3
The subject of test [5] is cancer cells of pancreatic, ovarian, colon, and CLL origins. Kind of test: Cytotoxicity in cancer cells, summary statement. Format: cell-based. To be noted: Homo sapiens, read-out: IC50, kills cancer cells. The source says: The results were also observed in vivo in mouse models of ovarian cancer where animal survival was improved, and tumor volume reductions were observed

A further test has as its system HL-60 cells. Kind of test: Mitochondrial transmembrane potential (rhodamine-123), HL-60. The class given is cell-based, human. To be noted: HL-60, 0.5 nM. The procedure:
FIG. 10. Effect of Orsaponin (OSW-1) on Mitochondrial transmembrane potential HL-60 cells. The parental HL-60 line and its mutant with mitochondrial respiration defect, clone C6F, were incubated with 0.5 nM OSW-1 for the indicated times. Change in mitochondrial transmembrane potential was measured by cytometry analysis, using rhodamine-123 as a potential-sensitive fluorescent dye.
3. Analysis of the Mitochondrial Transmembrane Potential. To evaluate the role of mitochondrial respiration in the cytotoxicity of OSW-1, changes in the potential of mitochondrial membrane were analyzed. Following the treatment of cells with OSW-1 for different time periods, cells were incubated with rhodamine-123 which is a potential-sensitive dye. Cytometric analysis was used to record changes in mitochondrial potential. […]
The effect of OSW-1 on mitochondrial transmembrane potential in HL-60 cells and C6F cells was also analyzed by incubating the cells with 0.5 nM OSW-1 for the 4, 16 and 24 hours. Change in mitochondrial transmembrane potential was measured by flow cytometry analysis, using rhodamine-123 as a potential-sensitive fluorescent dye and are depicted in FIG. 10.

For test [6], the system named is human ovarian cancer SKOV3 cells. Kind of test: Survival of nude mice inoculated i.p. with SKOV3. Format: in vivo. To be noted: i.p. 10 μg/kg/day, 5 days/week for two weeks. As for the experimental part:
FIG. 12. Nude mice were inoculated with human ovarian cancer SKOV3 cells (2×10^6/mouse, i.p., 10 mice/group). Drug treatment started on day 6 after tumor inoculation. OSW-1 was given by i.p. injection, 10 μg/kg/day, 5 days/week for two weeks.
Thus, nude mice were inoculated with human ovarian cancer SKOV3 cells at a concentration of 2×10^6/mouse, by the intraperitoneal route (i.p.) with 10 mice/group. Treatment with OSW-1 was started on day 6 after tumor inoculation. The control group was treated with saline. OSW-1 was given by i.p. injection, 10 μg/kg/day, 5 days/week for two weeks. […] When severe tumor burden and moribund signs appeared, euthanasia for the affected animal was performed according to IACUC standards.

For another test, the system named is primary CLL cells. Kind of test: cells. The class given is cell-based. As for the experimental part: FIG. 7. Effect of Orsaponin (OSW-1) on cell survival in primary human leukemia cells isolated from patients with chronic lymphocytic leukemia (CLL). Freshly isolated primary CLL cells were incubated with the indicated concentrations of OSW-1 for 72 hours in vitro. Cell viability was measured by MTT assay. […] Data from representative experiments with CLL cells from three different patients are shown. A total of 23 CLL blood samples were tested for sensitivity to OSW-1 in the same fashion.
as §1
Reduction of Cell Viability in CLL-Patient-Derived Cells. […] Freshly isolated primary CLL cells were incubated with the 0-100 nM OSW-1 for 72 hours in vitro and cell viability was measured by the MTT assay.
Cytotoxic activity of 17-deoxyorsaponin was also assessed in a number of patient samples. Primary human leukemia cells isolated from 11 patients with chronic lymphocytic leukemia (CLL) were analyzed for cytotoxic activity of 17-deoxyorsaponin. […]

For `COc1ccc(C(=O)OC2C(OC3C(O)COC(O[C@H]4C[C@H]5[C@@H]6CC=C7C[C@@H](O)CC[C@]7(C)[C@H]6CC[C@]5(C)[C@@]4(O)[C@H](C)C(=O)CCC(C)C)C3OC(C)=O)OCC(O)C2O)cc1` (stereo partly drawn) [OSW-1, 3β, 16β, 17 α-trihydroxycholost-5-en-22-one 16-O-(2-O-4-methoxybenzoyl-β-D-xylopyranosyl)-(1->3)-(2-O-acetyl-α-L-arabinopyranoside)], the IC50 was 0.1 nM in test [1]; 0.1 to 0.3 nM in test [3]; < 1 nM in test [5]; 0.15 ± 0.26 nM in the test with primary CLL cells (Homo sapiens, CLL cell, 72 h, primary CLL cells, 72 hours, MTT, mean of 23 patients, read-out: IC50, cell viability). Moreover, the “cell survival, colony formation” value was “effective in killing human colon cancer cells regardless of p53 expression status” in test [2] and “effectively kill the p53−/− cells” in test [4]. In addition, the “change in mitochondrial transmembrane potential” value in the test on HL-60 cells (16-24 h) was “substantial loss of mitochondrial transmembrane potential”; with HL-60 cells (4 h) it was “did not cause a significant change in mitochondrial transmembrane potential”. For the same compound, the Survival % was 100% in test [6] (30 days) and 50% in test [6] (60 days). For the same compound, the “Selectivity Index” value in the test with primary CLL cells (IC50 ratio of malignant/normal cells (CLL vs normal lymphocytes)) came out at 23.
